Reference: PubChem BioAssay AID2060899 (Molecular Pharmacology Branch, DTP, NCI, 2025)
pIC50: −log10 of the molar value.

System: 565726-208-R1-J5-PDC complex spheroids, growth inhibition
Assay: Anticancer human tumor 565726-208-R1-J5-PDC patient-derived pancreatic adenocarcinoma cell line growth inhibition [RAS]
Settings: for pIC50: curve of first compound; for viability, T/C: stronger effect = lower value
Summary of the method: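 Multi-cell-type spheroids: tumor cells plus HUVEC endothelial cells and mesenchymal stem cells. RAS-pathway inhibitors were combined with targeted agents, each dosed in half-log steps down from clinical Cmax, or from 10 microM when Cmax was unknown.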
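Further: spheroids exposed to compounds for seven days before readout.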
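Wherever viability, T/C is given: 100% = DMSO vehicle control viability.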

CC1(C)CCC(Nc2ncc(C(F)(F)F)c(-c3c[nH]c4c(P(C)(C)=O)c(C#N)ccc34)n2)CN1 (centres undefined) + CCn1c(-c2cc(N3CCN(C)CC3)cnc2C(C)OC)c2c3cc(ccc31)-c1csc(n1)CC(NC(=O)C1CC1C)C(=O)N1CCCC(N1)C(=O)OCC(C)(C)C2
pIC50 (second compound 0.000949 µM): 8.87 | pIC50 (second compound 0.003 µM): > 9.02 | pIC50 (second compound 0.00949 µM): > 9.02 | pIC50 (second compound 0.03 µM): > 9.02 | pIC50 (second compound 0.0949 µM): > 9.02 | pIC50 (second compound 0.3 µM): > 9.02 | viability, T/C (second compound 0.000949 µM, first compound 0.000949 µM): 54.4% | viability, T/C (second compound 0.000949 µM, first compound 0.003 µM): 41.2% | viability, T/C (second compound 0.000949 µM, first compound 0.00949 µM): 30.8% | viability, T/C (second compound 0.000949 µM, first compound 0.03 µM): 31.5% | viability, T/C (second compound 0.000949 µM, first compound 0.0949 µM): 31.6% | viability, T/C (second compound 0.000949 µM, first compound 0.3 µM): 34.4% | viability, T/C (second compound 0.003 µM, first compound 0.000949 µM): 46.8% | viability, T/C (second compound 0.003 µM, first compound 0.003 µM): 40.3% | viability, T/C (second compound 0.003 µM, first compound 0.00949 µM): 38.4% | viability, T/C (second compound 0.003 µM, first compound 0.03 µM): 28.9% | viability, T/C (second compound 0.003 µM, first compound 0.0949 µM): 32.6% | viability, T/C (second compound 0.003 µM, first compound 0.3 µM): 29.9% | viability, T/C (second compound 0.00949 µM, first compound 0.000949 µM): 37.3% | viability, T/C (second compound 0.00949 µM, first compound 0.003 µM): 36.1% | viability, T/C (second compound 0.00949 µM, first compound 0.00949 µM): 30.4% | viability, T/C (second compound 0.00949 µM, first compound 0.03 µM): 30.7% | viability, T/C (second compound 0.00949 µM, first compound 0.0949 µM): 28.1% | viability, T/C (second compound 0.00949 µM, first compound 0.3 µM): 28.7% | viability, T/C (second compound 0.03 µM, first compound 0.000949 µM): 30% | viability, T/C (second compound 0.03 µM, first compound 0.003 µM): 30.9% | viability, T/C (second compound 0.03 µM, first compound 0.00949 µM): 26.4% | viability, T/C (second compound 0.03 µM, first compound 0.03 µM): 25.5% | viability, T/C (second compound 0.03 µM, first compound 0.0949 µM): 28.5% | viability, T/C (second compound 0.03 µM, first compound 0.3 µM): 26% | viability, T/C (second compound 0.0949 µM, first compound 0.000949 µM): 24.8% | viability, T/C (second compound 0.0949 µM, first compound 0.003 µM): 27.1% | viability, T/C (second compound 0.0949 µM, first compound 0.00949 µM): 26.1% | viability, T/C (second compound 0.0949 µM, first compound 0.03 µM): 24% | viability, T/C (second compound 0.0949 µM, first compound 0.0949 µM): 26.8% | viability, T/C (second compound 0.0949 µM, first compound 0.3 µM): 23.8% | viability, T/C (second compound 0.3 µM, first compound 0.000949 µM): 22.5% | viability, T/C (second compound 0.3 µM, first compound 0.003 µM): 23.4% | viability, T/C (second compound 0.3 µM, first compound 0.00949 µM): 22.8% | viability, T/C (second compound 0.3 µM, first compound 0.03 µM): 22.4% | viability, T/C (second compound 0.3 µM, first compound 0.0949 µM): 25.4% | viability, T/C (second compound 0.3 µM, first compound 0.3 µM): 21.9%

CCc1c2c(nc3ccc(O)cc13)-c1cc3c(c(=O)n1C2)COC(=O)[C@]3(O)CC + C#Cc1c(F)ccc2cc(O)cc(-c3ncc4c(N5CC6CCC(C5)N6)nc(OCC56CCCN5CC(F)C6)nc4c3F)c12
pIC50 (second compound 0.0316 µM): 8.38 | pIC50 (second compound 0.1 µM): 8.39 | pIC50 (second compound 0.316 µM): 8.42 | pIC50 (second compound 1 µM): 8.56 | pIC50 (second compound 3.16 µM): 8.50 | pIC50 (second compound 10 µM): 8.82 | viability, T/C (second compound 0.0316 µM, first compound 0.000949 µM): 74.2% | viability, T/C (second compound 0.0316 µM, first compound 0.003 µM): 56.9% | viability, T/C (second compound 0.0316 µM, first compound 0.00949 µM): 34% | viability, T/C (second compound 0.0316 µM, first compound 0.03 µM): 20.2% | viability, T/C (second compound 0.0316 µM, first compound 0.0949 µM): 12.5% | viability, T/C (second compound 0.0316 µM, first compound 0.3 µM): 5.35% | viability, T/C (second compound 0.1 µM, first compound 0.000949 µM): 97.8% | viability, T/C (second compound 0.1 µM, first compound 0.003 µM): 56% | viability, T/C (second compound 0.1 µM, first compound 0.00949 µM): 31.8% | viability, T/C (second compound 0.1 µM, first compound 0.03 µM): 19.4% | viability, T/C (second compound 0.1 µM, first compound 0.0949 µM): 13.1% | viability, T/C (second compound 0.1 µM, first compound 0.3 µM): 6.83% | viability, T/C (second compound 0.316 µM, first compound 0.000949 µM): 81.1% | viability, T/C (second compound 0.316 µM, first compound 0.003 µM): 56.2% | viability, T/C (second compound 0.316 µM, first compound 0.00949 µM): 30.2% | viability, T/C (second compound 0.316 µM, first compound 0.03 µM): 20.6% | viability, T/C (second compound 0.316 µM, first compound 0.0949 µM): 13.9% | viability, T/C (second compound 0.316 µM, first compound 0.3 µM): 6.04% | viability, T/C (second compound 1 µM, first compound 0.000949 µM): 70.8% | viability, T/C (second compound 1 µM, first compound 0.003 µM): 43% | viability, T/C (second compound 1 µM, first compound 0.00949 µM): 35.9% | viability, T/C (second compound 1 µM, first compound 0.03 µM): 22.4% | viability, T/C (second compound 1 µM, first compound 0.0949 µM): 11.8% | viability, T/C (second compound 1 µM, first compound 0.3 µM): 6.08% | viability, T/C (second compound 3.16 µM, first compound 0.000949 µM): 58.8% | viability, T/C (second compound 3.16 µM, first compound 0.003 µM): 54.6% | viability, T/C (second compound 3.16 µM, first compound 0.00949 µM): 29.1% | viability, T/C (second compound 3.16 µM, first compound 0.03 µM): 22.1% | viability, T/C (second compound 3.16 µM, first compound 0.0949 µM): 14.1% | viability, T/C (second compound 3.16 µM, first compound 0.3 µM): 7.99% | viability, T/C (second compound 10 µM, first compound 0.000949 µM): 52.6% | viability, T/C (second compound 10 µM, first compound 0.003 µM): 49.1% | viability, T/C (second compound 10 µM, first compound 0.00949 µM): 30.1% | viability, T/C (second compound 10 µM, first compound 0.03 µM): 30.9% | viability, T/C (second compound 10 µM, first compound 0.0949 µM): 20.3% | viability, T/C (second compound 10 µM, first compound 0.3 µM): 8.91%
